The text below walks through data of patent publication US20230054749A1, “Herbicide Combinations Comprising Glufosinate and Flumiclorac-pentyl” (BASF SE, priority 2020, published 2023).

Like-named read-outs stand apart in the source and are kept apart here.

This test concerns Abutilon theophrasti. Briefly: Greenhouse post-emergence herbicidal activity (plant damage, 0 to 100% scale vs untreated control). Format: in vivo. As to conditions: 0.796 g ai/ha, ABUTH, AMS + NIS added, read-out: Solo Flumiclorac (0.796 g ai/ha) % activity.

Source text: For the post-emergence treatment, the test plants were first grown to 3.5 to 4.5 inch (8.9 to 11.4 cm) tall, and only then treated. Here, the herbicidal compositions were suspended or emulsified in water as distribution medium and sprayed using finely distributing nozzles.
Flumiclorac (commercial product name: Resource) was used as an emulsifiable concentrate having an active ingredient concentration of 100 g/l. Glufosinate (commercial product name: Liberty) was used as an aqueous soluble liquid of glufosinate ammonium having an active ingredient concentration of 280 g/l. Adjuvants of ammonium sulfate (AMS) and non-ionic surfactant (NIS) were added in all treatments. AMS and NIS were AMS Liquid and Induce at rates of 1680 g/ha and 0.25% (v/v), respectively.
The test period extended over 21 days after treatment (DAT). During this time, the plants were tended and their response to the individual treatments was evaluated.
The evaluation for the damage caused by the chemical compositions was carried out using a scale from 0 to 100%, compared to the untreated control plants. Here, 0 means no damage and 100 means complete destruction of the plants.
E = X + Y - (X.Y/100) • where X = effect in percent using flumiclorac at an application rate a; • Y = effect in percent using glufosinate at application rate b; • E = expected effect (in %) of flumiclorac plus glufosinate at application rates a + b.
The value E corresponds to the effect (plant damage or injury) which is to be expected if the activity of the individual compounds is just additive.

Regarding `CCCCCOC(=O)COc1cc(N2C(=O)C3=C(CCCC3)C2=O)c(F)cc1Cl` [Flumiclorac, flumiclorac-pentyl], the inhibition at 0.796 g/ha by setting is: (168 h, 7 DAT) 53%; (336 h, 14 DAT) 45%; (504 h, 21 DAT) 41%.
